Reference: patent US20100222269A1, “IMPROVED DERIVATIVES OF AMYLIN” (priority 2007, published 2010)
Like-named read-outs stand apart in the source and are kept apart here. Starred links: 1 amine or outer side, 2 acyl side, 3 side chain; linkers in the order of their positions; H or OH if unused. Positions of bridges follow the written chain, without caps; N, C: chain ends. Residues, ends and D or L forms follow the SMILES beside them. Groups on a side chain read outwards from the residue. *: point of attachment. C20 diacid = O=C(O)CCCCCCCCCCCCCCCCCCC(=O)*; C18 diacid = O=C(O)CCCCCCCCCCCCCCCCC(=O)*; γGlu = O=C(O)[C@H](CCC(=O)[*:2])N[*:1]; AEEA = NCCOCCOCC(=O)O

Molecular target: T1, Amylin 3(a) receptor (human calcitonin receptor (CTa) with RAMP-3) (Homo sapiens, UniProt O60896+P30988)
T1 construct: expressed in transfected cells; host or cells: BHK570 (baby hamster kidney) cells, stably transfected, with CRE-luciferase reporter
T1 sequence (O60896 24-148): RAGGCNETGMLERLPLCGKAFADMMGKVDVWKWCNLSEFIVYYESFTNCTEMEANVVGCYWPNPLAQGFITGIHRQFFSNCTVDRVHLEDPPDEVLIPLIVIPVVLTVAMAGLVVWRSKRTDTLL
T1 sequence (P30988 25-474): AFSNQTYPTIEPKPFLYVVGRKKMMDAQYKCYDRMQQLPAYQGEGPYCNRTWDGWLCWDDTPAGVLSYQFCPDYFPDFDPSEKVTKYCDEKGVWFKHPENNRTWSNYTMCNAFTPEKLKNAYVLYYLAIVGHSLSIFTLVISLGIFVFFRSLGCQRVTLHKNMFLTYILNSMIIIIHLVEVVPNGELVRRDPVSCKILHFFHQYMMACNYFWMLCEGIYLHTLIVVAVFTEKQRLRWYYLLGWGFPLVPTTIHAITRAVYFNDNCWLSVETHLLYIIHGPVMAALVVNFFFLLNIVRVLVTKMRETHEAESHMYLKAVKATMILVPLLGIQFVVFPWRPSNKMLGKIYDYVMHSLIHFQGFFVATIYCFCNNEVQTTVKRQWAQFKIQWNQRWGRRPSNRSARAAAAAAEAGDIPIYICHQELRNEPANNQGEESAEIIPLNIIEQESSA
Assay: Amylin luciferase assay (CRE-luciferase reporter in BHK Amylin 3(a)//CRE-luc cells)
Assay type: cell-based
Method in brief: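 BHK570 cells stably expressing human calcitonin receptor (CTa), RAMP-3 and a CRE-luciferase reporter, about 20.000 cells/well, were exposed to standard or sample for 4 h at 37° C in phenol-red-free DMEM with 10% FBS and 10 mM Hepes pH 7,4. Luminescence was read after 30 min with LucLite at room temperature.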

[1] = BHK570 cells with human calcitonin receptor (CTa), RAMP-3 and CRE-luciferase reporter, 4 hours incubation, read-out: Potency luciferase assay

EC50 [1] [nM] | Structure (SMILES) | EC50 [nM]
0.1 | CC[C@H](C)[C@H](NC(=O)[C@@H]1CCCN1C(=O)CNC(=O)[C@H](Cc1ccccc1)NC(=O)[C@H](CC(N)=O)NC(=O)[C@H](CC(N)=O)NC(=O)[C@H](CO)NC(=O)[C@H](CO)NC(=O)[C@H](Cc1c[nH]cn1)NC(=O)[C@@H](NC(=O)[C@H](CC(C)C)NC(=O)[C@H](Cc1ccccc1)NC(=O)[C@H](CC(N)=O)NC(=O)[C@H](C)NC(=O)[C@H](CC(C)C)NC(=O)[C@H](CCCNC(=N)N)NC(=O)[C@H](CCC(N)=O)NC(=O)[C@@H](NC(=O)[C@H](C)NC(=O)[C@@H]1CSSC[C@H](NC(=O)[C@@H](N)CCCCN)C(=O)N[C@@H](CCCCNC(=O)COCCOCCNC(=O)COCCOCCNC(=O)CCCCCCCCCCCCCCCCC(=O)O)C(=O)N[C@@H]([C@@H](C)O)C(=O)N[C@@H](C)C(=O)N[C@@H]([C@@H](C)O)C(=O)N1)[C@@H](C)O)C(C)C)C(=O)N[C@@H](CC(C)C)C(=O)N1CCC[C@H]1C(=O)N1CCC[C@H]1C(=O)N[C@H](C(=O)N[C@@H](CC(N)=O)C(=O)N[C@H](C(=O)NCC(=O)N[C@@H](CO)C(=O)N[C@@H](CC(N)=O)C(=O)N[C@H](C(=O)N[C@@H](Cc1ccc(O)cc1)C(N)=O)[C@@H](C)O)C(C)C)[C@@H](C)O [Example 3, N-epsilon3-(2-{2-[2-(2-{2-[2-(17-carboxyheptadecanoylamino)ethoxy]ethoxy}acetylamino)ethoxy]ethoxy}acetyl)-[Lys3]-pramlintide (1-37)] (H-KCK([AEEA-AEEA-C18 diacid])TATCATQRLANFLVHSSNNFGPILPPTNVGSNTY-NH2; disulfide 2-7) | –
0.06 | CC[C@H](C)[C@H](NC(=O)[C@H](CCCCNC(=O)COCCOCCNC(=O)COCCOCCNC(=O)CCCCCCCCCCCCCCCCCCC(=O)O)NC(=O)CNC(=O)[C@H](Cc1ccccc1)NC(=O)[C@H](CC(N)=O)NC(=O)[C@H](CC(N)=O)NC(=O)[C@H](CO)NC(=O)[C@H](CO)NC(=O)[C@H](Cc1c[nH]cn1)NC(=O)[C@@H](NC(=O)[C@H](CC(C)C)NC(=O)[C@H](Cc1ccccc1)NC(=O)[C@H](CC(N)=O)NC(=O)[C@H](C)NC(=O)[C@H](CC(C)C)NC(=O)[C@H](CCCNC(=N)N)NC(=O)[C@H](CCC(N)=O)NC(=O)[C@@H](NC(=O)[C@H](C)NC(=O)[C@@H]1CSSC[C@H](NC(=O)[C@@H](N)CCCCN)C(=O)N[C@@H](CC(N)=O)C(=O)N[C@@H]([C@@H](C)O)C(=O)N[C@@H](C)C(=O)N[C@@H]([C@@H](C)O)C(=O)N1)[C@@H](C)O)C(C)C)C(=O)N[C@@H](CC(C)C)C(=O)N1CCC[C@H]1C(=O)N1CCC[C@H]1C(=O)N[C@H](C(=O)N[C@@H](CC(N)=O)C(=O)N[C@H](C(=O)NCC(=O)N[C@@H](CO)C(=O)N[C@@H](CC(N)=O)C(=O)N[C@H](C(=O)N[C@@H](Cc1ccc(O)cc1)C(N)=O)[C@@H](C)O)C(C)C)[C@@H](C)O [Example 10, N-epsilon25-(2-{2-[2-(2-{2-[2-(19-carboxynonadecanoylamino)ethoxy]ethoxy}acetylamino)ethoxy]ethoxy}acetyl)-[Lys25]-pramlintide (1-37)] (H-KCNTATCATQRLANFLVHSSNNFGK([AEEA-AEEA-C20 diacid])ILPPTNVGSNTY-NH2; disulfide 2-7; N-terminus and C-terminus assumed) | –
0.06 | CC[C@H](C)[C@H](NC(=O)[C@@H]1CCCN1C(=O)CNC(=O)[C@H](Cc1ccccc1)NC(=O)[C@H](CC(N)=O)NC(=O)[C@H](CC(N)=O)NC(=O)[C@H](CO)NC(=O)[C@H](CO)NC(=O)[C@H](Cc1c[nH]cn1)NC(=O)[C@@H](NC(=O)[C@H](CC(C)C)NC(=O)[C@H](Cc1ccccc1)NC(=O)[C@H](CC(N)=O)NC(=O)[C@H](C)NC(=O)[C@H](CC(C)C)NC(=O)[C@H](CCCNC(=N)N)NC(=O)[C@H](CCC(N)=O)NC(=O)[C@@H](NC(=O)[C@H](C)NC(=O)[C@@H]1CSSC[C@H](NC(=O)[C@@H](N)CCCCN)C(=O)N[C@@H](CCCCNC(=O)COCCOCCNC(=O)COCCOCCNC(=O)CCCCCCCCCCCCCCCCCCC(=O)O)C(=O)N[C@@H]([C@@H](C)O)C(=O)N[C@@H](C)C(=O)N[C@@H]([C@@H](C)O)C(=O)N1)[C@@H](C)O)C(C)C)C(=O)N[C@@H](CC(C)C)C(=O)N1CCC[C@H]1C(=O)N1CCC[C@H]1C(=O)N[C@H](C(=O)N[C@@H](CC(N)=O)C(=O)N[C@H](C(=O)NCC(=O)N[C@@H](CO)C(=O)N[C@@H](CC(N)=O)C(=O)N[C@H](C(=O)N[C@@H](Cc1ccc(O)cc1)C(N)=O)[C@@H](C)O)C(C)C)[C@@H](C)O [Example 13, N-epsilon3-(2-{2-[2-(2-{2-[2-(19-carboxynonadecanoylamino)ethoxy]ethoxy}acetylamino)ethoxy]ethoxy}acetyl)-[Lys3]-pramlintide (1-37)] (H-KCK([AEEA-AEEA-C20 diacid])TATCATQRLANFLVHSSNNFGPILPPTNVGSNTY-NH2; disulfide 2-7; N-terminus assumed) | –
0.2 | CC[C@H](C)[C@H](NC(=O)[C@@H]1CCCN1C(=O)CNC(=O)[C@H](Cc1ccccc1)NC(=O)[C@H](CC(N)=O)NC(=O)[C@H](CC(N)=O)NC(=O)[C@H](CO)NC(=O)[C@H](CO)NC(=O)[C@H](Cc1c[nH]cn1)NC(=O)[C@@H](NC(=O)[C@H](CC(C)C)NC(=O)[C@H](Cc1ccccc1)NC(=O)[C@H](CC(N)=O)NC(=O)[C@H](C)NC(=O)[C@H](CC(C)C)NC(=O)[C@H](CCCNC(=N)N)NC(=O)[C@H](CCC(N)=O)NC(=O)[C@@H](NC(=O)[C@H](C)NC(=O)[C@@H]1CSSC[C@H](NC(=O)[C@H](CCCCN)NC(=O)[C@H](CCCNC(=N)N)NC(=O)CC[C@H](NC(=O)CCCCCCCCCCCCCCCCCCC(=O)O)C(=O)O)C(=O)N[C@@H](CC(N)=O)C(=O)N[C@@H]([C@@H](C)O)C(=O)N[C@@H](C)C(=O)N[C@@H]([C@@H](C)O)C(=O)N1)[C@@H](C)O)C(C)C)C(=O)N[C@@H](CC(C)C)C(=O)N1CCC[C@H]1C(=O)N1CCC[C@H]1C(=O)N[C@H](C(=O)N[C@@H](CC(N)=O)C(=O)N[C@H](C(=O)NCC(=O)N[C@@H](CO)C(=O)N[C@@H](CC(N)=O)C(=O)N[C@H](C(=O)N[C@@H](Cc1ccc(O)cc1)C(N)=O)[C@@H](C)O)C(C)C)[C@@H](C)O [Example 49, N-alpha-[(S)-4-carboxy-4-(19-carboxynonadecanoylamino)butyryl]-Arg-pramlintide (1-37)] ({C20 diacid-γGlu}-RKCNTATCATQRLANFLVHSSNNFGPILPPTNVGSNTY-NH2; disulfide 3-8; C-terminus assumed) | –
0.1 | CC[C@H](C)[C@H](NC(=O)[C@@H]1CCCN1C(=O)CNC(=O)[C@H](Cc1ccccc1)NC(=O)[C@H](CC(N)=O)NC(=O)[C@H](CC(N)=O)NC(=O)[C@H](CO)NC(=O)[C@H](CO)NC(=O)[C@H](Cc1c[nH]cn1)NC(=O)[C@@H](NC(=O)[C@H](CC(C)C)NC(=O)[C@H](Cc1ccccc1)NC(=O)[C@H](CC(N)=O)NC(=O)[C@H](C)NC(=O)[C@H](CC(C)C)NC(=O)[C@H](CCCNC(=N)N)NC(=O)[C@H](CCC(N)=O)NC(=O)[C@@H](NC(=O)[C@H](C)NC(=O)[C@@H]1CSSC[C@H](NC(=O)[C@H](CCCCN)NC(=O)[C@H](CCCCN)NC(=O)CC[C@H](NC(=O)CCCCCCCCCCCCCCCCCCC(=O)O)C(=O)O)C(=O)N[C@@H](CC(N)=O)C(=O)N[C@@H]([C@@H](C)O)C(=O)N[C@@H](C)C(=O)N[C@@H]([C@@H](C)O)C(=O)N1)[C@@H](C)O)C(C)C)C(=O)N[C@@H](CC(C)C)C(=O)N1CCC[C@H]1C(=O)N1CCC[C@H]1C(=O)N[C@H](C(=O)N[C@@H](CC(N)=O)C(=O)N[C@H](C(=O)NCC(=O)N[C@@H](CO)C(=O)N[C@@H](CC(N)=O)C(=O)N[C@H](C(=O)N[C@@H](Cc1ccc(O)cc1)C(N)=O)[C@@H](C)O)C(C)C)[C@@H](C)O [Example 48, N-alpha-[(S)-4-carboxy-4-(19-carboxynonadecanoylamino)butyryl]-Lys-pramlintide (1-37)] ({C20 diacid-γGlu}-KKCNTATCATQRLANFLVHSSNNFGPILPPTNVGSNTY-NH2; disulfide 3-8) | –
– | CC[C@H](C)[C@H](NC(=O)[C@@H]1CCCN1C(=O)CNC(=O)[C@H](Cc1ccccc1)NC(=O)[C@H](CC(N)=O)NC(=O)[C@H](CC(N)=O)NC(=O)[C@H](CO)NC(=O)[C@H](CO)NC(=O)[C@H](Cc1c[nH]cn1)NC(=O)[C@H](CCCCNC(=O)COCCOCCNC(=O)COCCOCCNC(=O)CCCCCCCCCCCCCCCCCCC(=O)O)NC(=O)[C@H](CC(C)C)NC(=O)[C@H](Cc1ccccc1)NC(=O)[C@H](CC(N)=O)NC(=O)[C@H](C)NC(=O)[C@H](CC(C)C)NC(=O)[C@H](CCCNC(=N)N)NC(=O)[C@H](CCC(N)=O)NC(=O)[C@@H](NC(=O)[C@H](C)NC(=O)[C@@H]1CSSC[C@H](NC(=O)[C@@H](N)CCCCN)C(=O)N[C@@H](CC(N)=O)C(=O)N[C@@H]([C@@H](C)O)C(=O)N[C@@H](C)C(=O)N[C@@H]([C@@H](C)O)C(=O)N1)[C@@H](C)O)C(=O)N[C@@H](CC(C)C)C(=O)N1CCC[C@H]1C(=O)N1CCC[C@H]1C(=O)N[C@H](C(=O)N[C@@H](CC(N)=O)C(=O)N[C@H](C(=O)NCC(=O)N[C@@H](CO)C(=O)N[C@@H](CC(N)=O)C(=O)N[C@H](C(=O)N[C@@H](Cc1ccc(O)cc1)C(N)=O)[C@@H](C)O)C(C)C)[C@@H](C)O [Example 8, N-epsilon17-(2-{2-[2-(2-{2-[2-(19-carboxynonadecanoylamino)ethoxy]ethoxy}acetylamino)ethoxy]ethoxy}acetyl)-[Lys17]-pramlintide (1-37)] (H-KCNTATCATQRLANFLK([AEEA-AEEA-C20 diacid])HSSNNFGPILPPTNVGSNTY-NH2; disulfide 2-7; N-terminus assumed) | 0.1
